Source: US20160122320A1, “USEFUL COMBINATIONS OF MONOBACTAM ANTIBIOTICS WITH BETA-LACTAMASE INHIBITORS” (Basilea Pharmaceutica AG, priority 2005, published 2016)
Counter-ions that a name gives are not always drawn.

Assays:
Assay in all cases: MIC, NCCLS broth microdilution
Assay type in all cases: cell-based
[1] = tested on: Acinetobacter sp. J2; settings: for MIC of antibiotic at fixed inhibitor concentration (4 mg/L): Acinetobacter sp. J2, MIC of antibiotic compound 1 with the labelled bridged monobactam of formula II and clavulanate, 4 mg/L each
[2] = tested on: Pseudomonas aeruginosa MK1184; settings: for MIC of antibiotic at fixed inhibitor concentration (4 mg/L): MIC of antibiotic compound 1 with the labelled bridged monobactam of formula II and clavulanate, 4 mg/L each
Method: Antimicrobial activity of the compounds and of their combinations was determined against a selection of organisms according to the standard procedures described by the National Committee for Clinical Laboratory Standards (National Committee for Clinical Laboratory. Standards (2000). Methods for Dilution Antimicrobial Susceptibility Tests for Bacteria That Grow Aerobically-Fifth Edition: Approved Standard M7-A5. NCCLS, Wayne, Pa., USA).
In all cases the final concentration of DMSO incubated with the bacteria is less than or equal to 1%. […] Plates were incubated overnight at an appropriate temperature (30° C. or 37° C.) and optical densities assessed by eye. The MIC value is defined as the lowest compound concentration completely inhibiting visible growth of the test organism. When combinations between compounds of formula I with compounds of formula II and are evaluated the compounds of formula I are tested in dilution series as described above while the compounds of formula II and III-XIII were present in all wells at a constant concentration of 4 μg/mL each.

[3] = tested on: Pseudomonas aeruginosa 1973E; settings: for MIC of antibiotic at fixed inhibitor concentration (4 mg/L): MIC of antibiotic compound 1 with the labelled bridged monobactam of formula II and clavulanate, 4 mg/L each
In short: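 MIC read by eye as the lowest concentration giving no visible growth after overnight incubation (30° C. or 37° C.), following NCCLS M7-A5 microdilution with ≤1% final DMSO. For combinations, partner compounds (formula II, III-XIII) were fixed at 4 μg/mL each while formula I compounds were titrated.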

[4] = tested on: Enterobacter cloacae P99; settings: for MIC of antibiotic at fixed inhibitor concentration (4 mg/L): MIC of antibiotic compound 1 with the labelled bridged monobactam of formula II and clavulanate, 4 mg/L each
[5] = tested on: Klebsiella pneumoniae CF104; settings: for MIC of antibiotic at fixed inhibitor concentration (4 mg/L): MIC of antibiotic compound 1 with the labelled bridged monobactam of formula II and clavulanate, 4 mg/L each
[6] = tested on: Serratia marcescens S6; settings: for MIC of antibiotic at fixed inhibitor concentration (4 mg/L): MIC of antibiotic compound 1 with the labelled bridged monobactam of formula II and clavulanate, 4 mg/L each
[7] = tested on: Stenotrophomonas malthophilia 1AC736; settings: for MIC of antibiotic at fixed inhibitor concentration (4 mg/L): Stenotrophomonas malthophilia 1AC736, MIC of antibiotic compound 1 with the labelled bridged monobactam of formula II and clavulanate, 4 mg/L each

For `O=C(C[n+]1cccc(C(F)(F)F)c1)N1CC[C@@H]2[C@H]1C(=O)N2S(=O)(=O)[O-]` [Compound 120, (1S,5R)-7-oxo-2-{2-[3-(trifluoromethyl)pyridinium]acetyl}-2,6-diazabicyclo[3.2.0]heptane-6-sulfonate, inner salt], the “MIC of antibiotic at fixed inhibitor concentration (4 mg/L)” value [1] was 32 µg/mL, the “MIC of antibiotic at fixed inhibitor concentration (4 mg/L)” value [2] was 16 µg/mL and the “MIC of antibiotic at fixed inhibitor concentration (4 mg/L)” value [3] was 8 µg/mL. The “MIC of antibiotic at fixed inhibitor concentration (4 mg/L)” value [4] was 32 µg/mL, the “MIC of antibiotic at fixed inhibitor concentration (4 mg/L)” value [5] was 0.25 µg/mL and the “MIC of antibiotic at fixed inhibitor concentration (4 mg/L)” value [6] was 0.25 µg/mL. For the same molecule, the “MIC of antibiotic at fixed inhibitor concentration (4 mg/L)” value [7] was 0.125 µg/mL.

`CC(C)c1cc[n+](CC(=O)N2CC[C@@H]3[C@H]2C(=O)N3S(=O)(=O)[O-])cc1` [Compound 113, (1S,5R)-2-{2-[4-(isopropyl)pyridinium]acetyl}-7-oxo-2,6-diazabicyclo[3.2.0]heptane-6-sulfonate, inner salt] was tested, and the “MIC of antibiotic at fixed inhibitor concentration (4 mg/L)” value [1] was greater than 32 µg/mL, the “MIC of antibiotic at fixed inhibitor concentration (4 mg/L)” value [2] was greater than 32 µg/mL and the “MIC of antibiotic at fixed inhibitor concentration (4 mg/L)” value [3] was 4 µg/mL. For the same molecule, the “MIC of antibiotic at fixed inhibitor concentration (4 mg/L)” value [4] was 32 µg/mL, the “MIC of antibiotic at fixed inhibitor concentration (4 mg/L)” value [5] was 0.125 µg/mL and the “MIC of antibiotic at fixed inhibitor concentration (4 mg/L)” value [6] was 0.25 µg/mL. The “MIC of antibiotic at fixed inhibitor concentration (4 mg/L)” value [7] was 0.25 µg/mL.

`Cc1cc[n+](CC(=O)N2CC[C@@H]3[C@H]2C(=O)N3S(=O)(=O)[O-])cc1C` [Compound 121, (1S,5R)-2-[2-(3,4-dimethylpyridinium)acetyl]-7-oxo-2,6-diazabicyclo[3.2.0]heptane-6-sulfonate, inner salt] was tested, and the “MIC of antibiotic at fixed inhibitor concentration (4 mg/L)” value [1] was greater than 32 µg/mL, the “MIC of antibiotic at fixed inhibitor concentration (4 mg/L)” value [2] was 16 µg/mL and the “MIC of antibiotic at fixed inhibitor concentration (4 mg/L)” value [3] was 4 µg/mL. The “MIC of antibiotic at fixed inhibitor concentration (4 mg/L)” value [4] was 32 µg/mL, the “MIC of antibiotic at fixed inhibitor concentration (4 mg/L)” value [5] was 0.25 µg/mL and the “MIC of antibiotic at fixed inhibitor concentration (4 mg/L)” value [6] was 0.25 µg/mL. The “MIC of antibiotic at fixed inhibitor concentration (4 mg/L)” value [7] was 0.25 µg/mL.

For `C[C@H]1[C@H](NC(=O)/C(=N\OCc2cc(=O)c(O)cn2O)c2nccc(N)n2)C(=O)N1S(=O)(=O)O` [Compound 21, (3S,4S)-3-{(2Z)-2-(4-aminopyrimidin-2-yl)-3-[(1,5-dihydroxy-4-oxo(2-hydropyridyl))methoxy]-3-azaprop-2-enoylamino}-4-methyl-2-oxoazetidinesulfonic acid], the MIC of antibiotic ([1]; Acinetobacter baumannii J2, antibiotic alone, no inhibitor) was greater than 32 µg/mL, the “MIC of antibiotic at fixed inhibitor concentration of 4 mg/L” value ([1]; Acinetobacter baumannii J2, with 102 and clavulanate) was greater than 32 µg/mL and the “MIC of antibiotic at fixed inhibitor concentration of 4 mg/L” value ([1]; Acinetobacter baumannii J2, with 102 and sulbactam) was 2 µg/mL. For the same molecule, the “MIC of antibiotic at fixed inhibitor concentration of 4 mg/L” value ([1]; Acinetobacter baumannii J2, with 323 and clavulanate) was 8 µg/mL, the “MIC of antibiotic at fixed inhibitor concentration of 4 mg/L” value ([1]; Acinetobacter baumannii J2, with 323 and sulbactam) was 2 µg/mL and the “MIC of antibiotic at fixed inhibitor concentration of 4 mg/L” value ([1]; Acinetobacter baumannii J2, with 324 and sulbactam) was 2 µg/mL. The MIC of antibiotic ([2]; antibiotic alone, no inhibitor) was greater than 32 µg/mL, the “MIC of antibiotic at fixed inhibitor concentration of 4 mg/L” value ([2]; with 102 and clavulanate) was 16 µg/mL and the “MIC of antibiotic at fixed inhibitor concentration of 4 mg/L” value ([2]; with 102 and sulbactam) was 32 µg/mL. The “MIC of antibiotic at fixed inhibitor concentration of 4 mg/L” value ([2]; with 323 and clavulanate) was 32 µg/mL, the “MIC of antibiotic at fixed inhibitor concentration of 4 mg/L” value ([2]; with 323 and sulbactam) was 8 µg/mL and the “MIC of antibiotic at fixed inhibitor concentration of 4 mg/L” value ([2]; with 324 and sulbactam) was 32 µg/mL. The MIC of antibiotic ([3]; antibiotic alone, no inhibitor) was 8 µg/mL, the “MIC of antibiotic at fixed inhibitor concentration of 4 mg/L” value ([3]; with 102 and clavulanate) was 8 µg/mL and the “MIC of antibiotic at fixed inhibitor concentration of 4 mg/L” value ([3]; with 102 and sulbactam) was 16 µg/mL. The “MIC of antibiotic at fixed inhibitor concentration of 4 mg/L” value ([3]; with 323 and clavulanate) was 16 µg/mL, the “MIC of antibiotic at fixed inhibitor concentration of 4 mg/L” value ([3]; with 323 and sulbactam) was 32 µg/mL and the “MIC of antibiotic at fixed inhibitor concentration of 4 mg/L” value ([3]; with 324 and sulbactam) was 16 µg/mL. The MIC of antibiotic ([4]; antibiotic alone, no inhibitor) was greater than 32 µg/mL, the “MIC of antibiotic at fixed inhibitor concentration of 4 mg/L” value ([4]; with 102 and clavulanate) was 32 µg/mL and the “MIC of antibiotic at fixed inhibitor concentration of 4 mg/L” value ([4]; with 102 and sulbactam) was 32 µg/mL. For the same molecule, the “MIC of antibiotic at fixed inhibitor concentration of 4 mg/L” value ([4]; with 323 and clavulanate) was 8 µg/mL, the “MIC of antibiotic at fixed inhibitor concentration of 4 mg/L” value ([4]; with 323 and sulbactam) was 8 µg/mL and the “MIC of antibiotic at fixed inhibitor concentration of 4 mg/L” value ([4]; with 324 and sulbactam) was 8 µg/mL. For the same molecule, the MIC of antibiotic ([5]; antibiotic alone, no inhibitor) was greater than 32 µg/mL, the “MIC of antibiotic at fixed inhibitor concentration of 4 mg/L” value ([5]; with 102 and clavulanate) was less than 0.06 µg/mL and the “MIC of antibiotic at fixed inhibitor concentration of 4 mg/L” value ([5]; with 102 and sulbactam) was 2 µg/mL. For the same molecule, the “MIC of antibiotic at fixed inhibitor concentration of 4 mg/L” value ([5]; with 323 and clavulanate) was 2 µg/mL, the “MIC of antibiotic at fixed inhibitor concentration of 4 mg/L” value ([5]; with 323 and sulbactam) was 1 µg/mL and the “MIC of antibiotic at fixed inhibitor concentration of 4 mg/L” value ([5]; with 324 and sulbactam) was 4 µg/mL. The MIC of antibiotic ([6]; antibiotic alone, no inhibitor) was 8 µg/mL, the “MIC of antibiotic at fixed inhibitor concentration of 4 mg/L” value ([6]; with 102 and clavulanate) was 0.5 µg/mL and the “MIC of antibiotic at fixed inhibitor concentration of 4 mg/L” value ([6]; with 102 and sulbactam) was 16 µg/mL. The “MIC of antibiotic at fixed inhibitor concentration of 4 mg/L” value ([6]; with 323 and clavulanate) was 2 µg/mL, the “MIC of antibiotic at fixed inhibitor concentration of 4 mg/L” value ([6]; with 323 and sulbactam) was 2 µg/mL and the “MIC of antibiotic at fixed inhibitor concentration of 4 mg/L” value ([6]; with 324 and sulbactam) was 4 µg/mL. For the same molecule, the MIC of antibiotic ([7]; Stenotrophomonas maltophilia 1AC736, antibiotic alone, no inhibitor) was 8 µg/mL, the “MIC of antibiotic at fixed inhibitor concentration of 4 mg/L” value ([7]; Stenotrophomonas maltophilia 1AC736, with 102 and clavulanate) was 2 µg/mL and the “MIC of antibiotic at fixed inhibitor concentration of 4 mg/L” value ([7]; Stenotrophomonas maltophilia 1AC736, with 102 and sulbactam) was 8 µg/mL. For the same molecule, the “MIC of antibiotic at fixed inhibitor concentration of 4 mg/L” value ([7]; Stenotrophomonas maltophilia 1AC736, with 323 and clavulanate) was 2 µg/mL, the “MIC of antibiotic at fixed inhibitor concentration of 4 mg/L” value ([7]; Stenotrophomonas maltophilia 1AC736, with 323 and sulbactam) was 4 µg/mL and the “MIC of antibiotic at fixed inhibitor concentration of 4 mg/L” value ([7]; Stenotrophomonas maltophilia 1AC736, with 324 and sulbactam) was 4 µg/mL.

`NC(C(=O)N1CC[C@@H]2[C@H]1C(=O)N2S(=O)(=O)O)c1ccc(O)c(O)c1` (stereo partly shown) [Compound 403] was tested, and the “MIC of antibiotic at fixed inhibitor concentration (4 mg/L)” value [1] was 8 µg/mL, the “MIC of antibiotic at fixed inhibitor concentration (4 mg/L)” value [2] was greater than 32 µg/mL and the “MIC of antibiotic at fixed inhibitor concentration (4 mg/L)” value [3] was 2 µg/mL. For the same molecule, the “MIC of antibiotic at fixed inhibitor concentration (4 mg/L)” value [4] was 32 µg/mL, the “MIC of antibiotic at fixed inhibitor concentration (4 mg/L)” value [5] was 4 µg/mL and the “MIC of antibiotic at fixed inhibitor concentration (4 mg/L)” value [6] was 0.5 µg/mL. The “MIC of antibiotic at fixed inhibitor concentration (4 mg/L)” value [7] was 0.125 µg/mL.
